# Assay results as given in patent US11912688B2, “1, 3-dioxolane derivative” (TOHOKU UNIVERSITY, priority 2019, dated 2024).
# Experiments:
# ChREBP [1] = experiment: ChREBP target gene expression analysis in the kidney by quantitative PCR (db/db mice); format: in vivo, mouse; conditions: db/db mice of Test Example 7, quantitative PCR
# Experimental: (§1) In the mice used in Test Example 3, the expression variations of ChREBPβ and the TXNIP genes, which are target genes of ChREBP in the kidney, were analyzed by quantitative PCR in the method of the previous report (Genes to Cells 19 (2013) 52-65). The following primer set was used for the amplification of ChREBPβ.
# In the mice used in Test Example 7, ChREBP target gene expression analysis was performed by the same method as in Test Example 4. FIG. 22 and FIG. 23 show the results.
# ChREBP [2] = experiment: ChREBP target gene expression analysis in the kidney by quantitative PCR (iNOS mice); format: in vivo, mouse; conditions: iNOS mice of Test Example 3, quantitative PCR
# Experimental: as §1
# A primer set used for the amplification of the TXNIP gene is as mentioned above.
# iNOS transgenic mice [3] = experiment: Test using mice developing diabetic nephropathy (iNOS transgenic mice); format: in vivo, mouse; conditions: 6 mg/kg/day oral
# Description: iNOS transgenic mice (Takamura T. et al., J Biol Chem. 1998; 273: 2493-2496; received from Emeritus Professor Hiroshi Okamoto, Tohoku University) were used as model mice. According to the literature of Takamura et al., breeding in which 4-week-old model mice (experimental group: n=8, control group: n=6) and a wild type group (n=8), which is non-transgenic mice born simultaneously with the model mice by mating iNOS transgenic mice and wild type (CD1 (ICR)) mice, were fed with high protein and high calorie diets was performed for 13 weeks. Compound 12 (D-532) was further orally administered to the experimental group in 6 mg/kg/day. As to the groups, the body weights were measured every day, and the blood sugar levels, the albumin in urine, and the creatinine in urine were measured in accordance with the usual method every 3 weeks. The groups were sacrificed after the breeding, the serum creatinine in the blood collected from the abdominal vena cava at the time of dissection was measured, and the gene expression in the kidneys collected at the time of dissection was analyzed. The kidney tissues were stained with HE and PAS and observed.
# Further, the […] tissue section images were subjected to ImageJ (http://imagej.nih.gov/ij/) and measured according to the operation manual attached to ImageJ. When each glomerulus area (each group, n=100) and an area obtained by excluding regions of no interest such as vascular lumens and nuclei from the each glomerulus area were found, and the ratio therebetween, namely the PAS-positive area ratio in glomeruli, was found, the ratio increased in the model mice, and the improvement was meanwhile confirmed in the administered group.
# iNOS transgenic mice [4] = experiment: Observation of mouse kidney tissues by transmission electron microscope (iNOS mice); format: in vivo; conditions: iNOS mice of Test Example 3, transmission electron microscope; FIG. 16C
# Experimental: The kidneys of model mice in the administered group and the non-administered group, and a mouse in the wild type group in Test Example 3 were placed in a prefixing solution containing 2% PFA (FUJIFILM Wako Pure Chemical Corporation; 163-20145)/2.5% glutaraldehyde (TAAB Laboratories Equipment Ltd.; G017/1)/0.1 M cacodylate buffer solution (FUJIFILM Wako Pure Chemical Corporation; 036-18175) and treated at room temperature for 2 hours. The prefixed kidneys were washed with 0.1 M cacodylate buffer solution (containing 8% sucrose (FUJIFILM Wako Pure Chemical Corporation: 196-00015)) on ice for 15 minutes×4 times and treated with postfixing solution containing 1% osmium tetroxide (FUJIFILM Wako Pure Chemical Corporation; 154-01014) on ice for 90 minutes. The postfixed kidneys were washed with ultrapure water for 15 minutes×3 times, placed in aqueous 50, 60, 70, 80, 90, and 95% ethanol solutions each for 10 minutes×1 time, further in 100% ethanol for 20 minutes×3 times, and subjected to ethanol dehydration. […]
# db/db mice = experiment: Relationship between blood sugar level and amount of albumin excreted in urine (ACR), regression lines, db/db mice; format: in vivo, mouse; conditions: experimental vs control group, least squares regression, FIG. 25
# Description: As to the blood sugar levels and the amounts of albumin excreted in urine (ACR) of the experimental group and the control group (non-administered group of db/db mice) in Test Example 7, a scatter diagram was created using SPSS, which is statistical analysis software, so that the abscissa axis is the blood sugar level, and the ordinate axis is the ACR, and regression lines (linear approximation by the least squares method) were found.
structure (smiles),measurement,setting,value
"c1ccc(COC[C@H]2CO[C@@](Cn3nnc4ccccc43)(c3ccccc3)O2)cc1 [Example D-532, 1-(((2S,4S)-4-((benzyloxy)methyl)-2-phenyl-1,3-dioxolan-2-yl)methyl)-1H-benzo[d][1,2,3]triazole]",expression of ChREBPβ gene in the kidney,ChREBP [1]; FIG. 22,Decrease in the expression
same,expression of TXNIP gene in the kidney,ChREBP [1]; FIG. 23,Decrease in the expression
same,expression of ChREBPβ gene in the kidney,ChREBP [2]; FIG. 10,decrease in expression
same,expression of TXNIP gene in the kidney,ChREBP [2]; FIG. 11,decrease in expression
same,blood sugar level,"iNOS transgenic mice [3]; 13 weeks, vs control group, FIG. 4",significantly low value as compared with the control group
same,amount of albumin excreted in urine,"iNOS transgenic mice [3]; 13 weeks, vs control group, FIG. 5",significant low value
same,increase in blood creatinine,"iNOS transgenic mice [3]; at dissection, FIG. 6",significantly improved
same,structure of foot processes in kidney tissue,iNOS transgenic mice [4],suppressed the structural change of the foot processes
same,effect on ACR relative to blood sugar level (gradient of the regression line),db/db mice,direct effect on the kidney
